Patent US8198317B2, “Methylenedioxy phenolic compounds and their use to treat disease” (The Ohio State University Research Foundation, priority 2008, dated 2012)

Legend:
Cardiovascular Patient = test: Treatment of a patient with acute non-ST elevation myocardial infarction (Examples 11-12); type: in vivo, human; settings: 1.0 to 100 mg/kg in the catheterization laboratory
Procedure: (§1) A person presents with uncomfortable pressure, squeezing and pain in the center of their chest as well as in shoulders, arms, neck, jaw and back for over 4 hours. They also complain of shortness of breath. […] They are given aspirin, clopidogrel, nitrates and IV heparin and taken to the catheterization laboratory. After being evaluated with an angiography, they are diagnosed as suffering from a […] blockage in the left anterior descending coronary artery. The patient is administered a composition comprising an effective amount of 3,4-Methylenedioxy 6-nitro phenyl lipoate (INV-7465) (1.0 to 100 mg/kg) in the catheterization laboratory. Patient reports improvement in the chest pain, shortness of breath. They are again evaluated with an angiography to measure reduced plaque in their arteries.
as §1, with “The patient is administered a composition comprising an effective amount of 3,4-Methylenedioxy 6-nitro phenyl lipoate (INV-7465) (1.0 to 100 mg/kg) in the catheterization laboratory. Patient reports improvement in the chest pain, shortness of breath.” left out

[1] = system: Watanabe Heritable Hyperlipidemic Rabbits (WHHL); test: Immunohistochemistry and staining of WHHL rabbit aorta; type: in vivo
Procedure: Immunohistochemical staining was performed to assess inflammatory content using the primary antibodies (1:200 concentration) and a detection system (Immunoperoxidase Secondary Detection System; Chemicon International, Temecula, Calif.), and quantified with software (NIH Image) after digitization of the images with a camera system (Zeiss Axioskop with Spot I digital camera). Antibodies against CD68 were purchased from Santa Cruz Biotechnology Incorporated (Santa Cruz, Calif.). A polyclonal anti-α-Actin antibody was obtained from Upstate Cell Signaling Solutions (Lake Placid, N.Y.). T cell receptor β antibody was obtained from Biolegend (San Diego, Calif.). To quantify the staining, the mean density of 4 negative control (no primary antibody) sections was set as the threshold, and positive area was acquired by software. Results were finally normalized by the area subtended by the external elastic lamina to the luminal interface or the intimal-medial volume. The effects of INV-75 on macrophages and smooth muscle cells in comparison to control group were evaluated by CD68 and α-actin immunohistochemistry, respectively. INV-75 decreased the number of macrophages vs. controls and summary of whole groups is represented by bar diagram in FIG. 10 (n=4-5 animals/group). *p<0.05 vs control animals using unpaired t test). […] INV-75 increased the smooth muscle content (% of total area) vs controls and the combined results were represented as a bar diagram n=5/group (n=number of animals used per group). *p<0.05 vs control animals.
Lipid deposition in aorta was identified after total 14 weeks of treatment with drug, rabbits were sacrificed and abdominal aortas were fixed in 4% paraformaldehyde. The lipid deposition in aortic wall was then visualized by oil red staining. […] (FIG. 13).

PCSK9 = PCSK9 expression in HepG2 cells; type: cell-based, human
Description: Next we investigated the effect of INV-75 in regulating LDL receptor expression in the same cells using a similar protocol to assess dose and temporal dependence. FIGS. 5E and 5F depict the time course of LDL receptor expression and dose dependence in response to INV-75. […] INV-75 had no effects on SREBP-1 regulation (data not shown). Simultaneously multiple genes involved in cholesterol synthesis and regulation, apolipoprotein gene expression and expression of PCSK9 (Proprotein convertase subtilisin/kexin type 9) was tested. The latter gene is known to regulate LDL receptor expression by binding to the epidermal growth factor-like repeat A (EGF-A) domain of the low-density lipoprotein receptor (LDLR), inducing LDLR degradation. Inhibition of PSCK9 function is currently being explored as a means of lowering cholesterol levels.

[2] = system: Watanabe Heritable Hyperlipidemic Rabbits (WHHL); test: Lucigenin chemiluminescence for NADPH derived superoxide in WHHL aortic lysates; type: in vivo, rabbit; settings: vs control
Procedure: Oxidative stress has been implicated in atherosclerosis. Superoxide (O2^•−) derived from NADPH could potentially trigger a free radical chain reaction which could potentially catalyze atherosclerotic plaque formation. Rabbit aorta was homogenized in PBS, and the protein concentration was adjusted to 5 μg/μl. 20 ul/well of cell lysates were plated on a 96-well microplate in Kreps-Hepes Buffer (pH=7.4; initially gassed with 95% O2, and 5% CO2). The baseline O2^•− production was measured with 5 μM Lucigenin. NADPH induced O2^•− production was measured by adding NADPH (100 μM). Measurements were performed with Berthold Luminometer LB 960. Luminometer settings were 0.1 s measurement and 30s kinetics.

ICAM-1 = test: ELISA of ICAM-1 release from TNF-α stimulated HUVEC; type: cell-based, human; settings: HUVEC pretreated 24 hours, then 2 ng/mL TNF-α for 6 hours
Procedure: (§2) Cell Culture: All experiments were performed with cultured Human Umbilical Vein Endothelial Cells (HUVECs—Gibco, Invitrogen) and grown to confluence at 37° C. in a 5% CO2 humidified incubator, on tissue culture flasks previously coated with 1% gelatin in supplemented culture medium (M199 with 10% heat inactivated fetal calf serum, 100 U/ml penicillin, 100 μg/ml streptomycin, 2 mM glutamine, 10 mM HEPES, pH 7.4, heparin 12 I.U./ml, 1% retinal derived growth factor, Sigma). Following trypsin treatment, the cells were detached from the flasks and final mono-layers were prepared by seeding HUVECs on gelatin-precoated culture plates and then incubated for 24-48 h to ensure confluence. Cells up to the fourth passage were used for all experiments. Recombinant human TNF-α was purchased from R&D Systems (Minneapolis, Minn.).
(§3) Enzyme-Linked Immunosorbent Assay (ELISA): To measure the expression of cell surface adhesion molecules, ELISA technique was utilized (R and D Systems, Minneapolis, Minn.). […]
(§4) Enzyme-Linked Immunosorbent Assay (ELISA) and results: To measure the expression of cell surface adhesion molecules, ELISA technique was utilized. […] The expression of VCAM-1 and ICAM-1 were evaluated after TNF-α stimulation for 6 hours.

VCAM-1 = test: ELISA of VCAM-1 release from TNF-α stimulated HUVEC; type: cell-based, human; settings: HUVEC pretreated 24 hours, then 2 ng/mL TNF-α for 6 hours
Procedure: as §2, §3, §4

## CC(=O)Oc1cc2c(cc1[N+](=O)[O-])OCO2 [INV-75, 3,4-methylenedioxy-6-nitrophenyl acetate]
Cardiovascular Patient
  chest pain, shortness of breath: improvement
[1]; WHHL abdominal aorta, vs control group
  collagen content (Masson's trichrome): reduction
[1]; WHHL abdominal aorta, vs controls
  lipid component (Oil Red O): decreased
[1]; WHHL aorta, vs controls
  number of macrophages (CD68): decreased
  smooth muscle content (% of total area, α-actin): increased
PCSK9
  PCSK9 expression: no effects
[2]
  basal and stimulated superoxide production in aortic tissue lysates: lower
ICAM-1
  release of ICAM-1: marked reduction
VCAM-1
  release of VCAM-1: marked reduction

## O=C(CCCCC1CCSS1)Oc1cc2c(cc1[N+](=O)[O-])OCO2 (stereo not drawn) [INV-7465, 3,4-Methylenedioxy 6-nitro phenyl lipoate]
Cardiovascular Patient
  chest pain, shortness of breath: improvement
ICAM-1
  release of ICAM-1: marked reduction
VCAM-1
  release of VCAM-1: marked reduction
